Test results taken from patent US20260209152A1, “Substituted Hydroxystilbene Compounds and Derivatives, Synthesis and Uses Thereof” (Kynan Duke IP, LLC, priority 2019, published 2026).
Read-outs that look alike come from different tables or passages of the source.

Tests used:
Experiment in all cases: CellTiter Glo cell viability assay
Assay type in all cases: cell-based, human
Conditions in all cases: for IC50: Homo sapiens
Kidney Caki-2 = system: Kidney Caki-2
How it was run: (§1)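 Cells seeded at 1.7*10^3/well in quadruplicate; compounds at 18 two-fold dilutions from 5 μM (0.000038146-5 μM), or at 1, 2, 5, 10 and 20 μM. CellTiter Glo luminescence read on days 1, 3 and 5 after treatment. IC50 by nonlinear regression of luminescence versus log dose.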

Bladder T24 = system: Bladder T24
How it was run: as §1

Liver SNU-398 = system: Liver SNU-398
How it was run: as §1

Pancreatic HPAFII = system: Pancreatic HPAFII
How it was run: as §1

Pharynx DETROIT = system: Pharynx DETROIT
How it was run: as §1

Kidney Caki-1 = system: Kidney Caki-1
How it was run: as §1

Rhabomyosarcoma TE 159.T = system: Rhabomyosarcoma TE 159.T
How it was run: as §1

Liver SNU-423 = system: Liver SNU-423
How it was run: as §1

Pancreatic BxPC3 = system: Pancreatic BxPC3
How it was run: as §1

[1] = system: Hypo-pharynx UPCI: SCC152
How it was run: as §1

Bladder UMUC_3 = system: Bladder UMUC_3
How it was run: as §1

Lung NCI-H2126 = system: Lung NCI-H2126
How it was run: as §1

Ewing's Sarcoma HTB-166 = system: Ewing's Sarcoma HTB-166
How it was run: as §1

Lung NCI-H1573 = system: Lung NCI-H1573
How it was run: as §1

Pancreatic PANC-1 = system: Pancreatic PANC-1
How it was run: as §1

Tongue UPCI: SCC090 = system: Tongue UPCI: SCC090
How it was run: as §1

Tongue SCC-4 = system: Tongue SCC-4
How it was run: as §1

Bladder SCABER = system: Bladder SCABER
How it was run: as §1

Osteosarcomas SAOS-2 = system: Osteosarcomas SAOS-2
How it was run: as §1

Bladder HT-1197 = system: Bladder HT-1197
How it was run: as §1

Liver HepG2 = system: Liver HepG2
How it was run: as §1

Pharynx FADU = system: Pharynx FADU
How it was run: as §1

[2] = Caki-2/HTB-47, 11 dilutions 3-0.00001 μM, read-out: IC50
[3] = T24/HTB-4, 11 dilutions 3-0.00001 μM, read-out: IC50
[4] = SNU-398/CRL-2233, 11 dilutions 3-0.00001 μM, read-out: IC50
[5] = HPAF-II/CRL-1997, 11 dilutions 3-0.00001 μM, read-out: IC50
[6] = Detroit 562/CCL-138, 11 dilutions 3-0.00001 μM, read-out: IC50
[7] = Caki-1/HTB-46, 11 dilutions 3-0.00001 μM, read-out: IC50
[8] = SNU-423/CRL-2238, 11 dilutions 3-0.00001 μM, read-out: IC50
[9] = BxPC-3/CRL-1687, 11 dilutions 3-0.00001 μM, read-out: IC50
[10] = UPCI: SCC152/CRL-3240, 11 dilutions 3-0.00001 μM, read-out: IC50
[11] = UMUC3, UM-UC-3/CRL-1749, 11 dilutions 3-0.00001 μM, read-out: IC50
[12] = NCI-H2126/CCL-256, 11 dilutions 3-0.00001 μM, read-out: IC50
[13] = RD-ES/HTB-166, 11 dilutions 3-0.00001 μM, read-out: IC50
[14] = NCI-H1573/CRL-5877, 11 dilutions 3-0.00001 μM, read-out: IC50
[15] = PANC-1/CRL-1469, 11 dilutions 3-0.00001 μM, read-out: IC50
[16] = UPCI: SCC090/CRL-3239, 11 dilutions 3-0.00001 μM, read-out: IC50
[17] = SCC-4/CRL-1624, 11 dilutions 3-0.00001 μM, read-out: IC50
[18] = SCaBER/HTB-3, 11 dilutions 3-0.00001 μM, read-out: IC50
[19] = Saos-2/HTB-85, 11 dilutions 3-0.00001 μM, read-out: IC50
[20] = HT1197, HT-1197/CRL-1473, 11 dilutions 3-0.00001 μM, read-out: IC50
[21] = HepG2, Hep G2/HB-8065, 11 dilutions 3-0.00001 μM, read-out: IC50
[22] = Fadu/HTB-43, 11 dilutions 3-0.00001 μM, read-out: IC50
[23] = IC50 of 1 [KYN-001] vs 8 [KYN-119], 3 Days
[24] = 72 h, 3 Days of treatment, 18 2-fold dilutions 5-0.00003 μM, read-out: Average IC50

Structure (SMILES): COc1cc(/C=C/c2cc(O)cc(OC)c2CC=C(C)C)ccc1NC=O [Compound 27, (E)-N-(4-(5-hydroxy-3-methoxy-2-(3-methylbut-2-en-1-yl)styryl)-2-methoxyphenyl)formamide]
- IC50 (Kidney Caki-2; [2]): 1550 nM
- IC50 (Bladder T24; [3]): 32.5 nM
- IC50 (Liver SNU-398; [4]): 54 nM
- IC50 (Pancreatic HPAFII; [5]): 102 nM
- IC50 (Pharynx DETROIT; [6]): 20.3 nM
- IC50 (Kidney Caki-1; [7]): 15.4 nM
- IC50 (Rhabomyosarcoma TE 159.T; TE 159.T/CRL-7752, 11 dilutions 3-0.00001 μM, read-out: IC50): 31 nM
- IC50 (Liver SNU-423; [8]): 53.5 nM
- IC50 (Pancreatic BxPC3; [9]): 302 nM
- IC50 [1, 10]: 36.6 nM
- IC50 (Bladder UMUC_3; [11]): 30.2 nM
- IC50 (Lung NCI-H2126; [12]): 31 nM
- IC50 (Ewing's Sarcoma HTB-166; [13]): 133 nM
- IC50 (Lung NCI-H1573; [14]): 48 nM
- IC50 (Pancreatic PANC-1; [15]): 28.8 nM
- IC50 (Tongue UPCI: SCC090; [16]): 20 nM
- IC50 (Tongue SCC-4; [17]): 11.4 nM
- IC50 (Bladder SCABER; [18]): 10.9 nM
- IC50 (Osteosarcomas SAOS-2; [19]): 42.4 nM
- IC50 (Bladder HT-1197; [20]): 17.1 nM
- IC50 (Liver HepG2; [21]): 251 nM
- IC50 (Pharynx FADU; [22]): 28.6 nM

Structure (SMILES): CCOc1cc(O)cc(/C=C/c2ccc(O)c(OC)c2)c1CC=C(C)C [Compound 8, (E)-3-Ethoxy-5-(4-hydroxy-3-methoxystyryl)-4-(3-methylbut-2-en-1-yl)phenol]
- IC50 (Kidney Caki-2; CAKI-2, 72 h, 3 Days of treatment, 18 2-fold dilutions 5-0.00003 μM, read-out: Average IC50): 281 nM
- IC50 (Kidney Caki-2; [2]): 524 nM
- Fold IC50 (Kidney Caki-2; [23]): 4.0
- IC50 (Bladder T24; [24]): 22.5 nM
- IC50 (Bladder T24; [3]): 61.1 nM
- Fold IC50 (Bladder T24; [23]): 5.8
- IC50 (Liver SNU-398; SNU-398, 72 h, 3 Days of treatment, 18 2-fold dilutions 5-0.00003 μM, read-out: Average IC50): 8.15 nM
- IC50 (Liver SNU-398; [4]): 74.6 nM
- Fold IC50 (Liver SNU-398; [23]): 5.3
- IC50 (Pancreatic HPAFII; HPAF-II, 72 h, 3 Days of treatment, 18 2-fold dilutions 5-0.00003 μM, read-out: Average IC50): 403 nM
- IC50 (Pancreatic HPAFII; [5]): 242 nM
- Fold IC50 (Pancreatic HPAFII; [23]): 2.7
- IC50 (Pharynx DETROIT; [24]): 438 nM
- IC50 (Pharynx DETROIT; [6]): 76.6 nM
- Fold IC50 (Pharynx DETROIT; [23]): 2.7
- IC50 (Kidney Caki-1; CAKI-1, 72 h, 3 Days of treatment, 18 2-fold dilutions 5-0.00003 μM, read-out: Average IC50): 8.9 nM
- IC50 (Kidney Caki-1; [7]): 27.9 nM
- Fold IC50 (Kidney Caki-1; [23]): 12
- IC50 (Rhabomyosarcoma TE 159.T; [24]): 19.6 nM
- Fold IC50 (Rhabomyosarcoma TE 159.T; [23]): 7.5
- IC50 (Liver SNU-423; SNU-423, 72 h, 3 Days of treatment, 18 2-fold dilutions 5-0.00003 μM, read-out: Average IC50): 6.23 nM
- IC50 (Liver SNU-423; [8]): 79.7 nM
- Fold IC50 (Liver SNU-423; [23]): 5.4
- IC50 (Pancreatic BxPC3; BXPC-3, 72 h, 3 Days of treatment, 18 2-fold dilutions 5-0.00003 μM, read-out: Average IC50): 355 nM
- IC50 (Pancreatic BxPC3; [9]): 387 nM
- Fold IC50 (Pancreatic BxPC3; [23]): 3.0
- IC50 [1, 24]: 23 nM
- IC50 [1, 10]: 54.9 nM
- Fold IC50 [1, 23]: 2.0
- IC50 (Bladder UMUC_3; UMUC3, 72 h, 3 Days of treatment, 18 2-fold dilutions 5-0.00003 μM, read-out: Average IC50): 5.48 nM
- IC50 (Bladder UMUC_3; [11]): 54.8 nM
- Fold IC50 (Bladder UMUC_3; [23]): 5.7
- IC50 (Lung NCI-H2126; NCI-H2126, 72 h, 3 Days of treatment, 18 2-fold dilutions 5-0.00003 μM, read-out: Average IC50): 1.73 nM
- IC50 (Lung NCI-H2126; [12]): 33.1 nM
- Fold IC50 (Lung NCI-H2126; [23]): 44
- IC50 (Ewing's Sarcoma HTB-166; [24]): 49.2 nM
- IC50 (Ewing's Sarcoma HTB-166; [13]): 163 nM
- Fold IC50 (Ewing's Sarcoma HTB-166; [23]): 5.2
- IC50 (Lung NCI-H1573; NCI-H1573, 72 h, 3 Days of treatment, 18 2-fold dilutions 5-0.00003 μM, read-out: Average IC50): 20.5 nM
- IC50 (Lung NCI-H1573; [14]): 33.5 nM
- Fold IC50 (Lung NCI-H1573; [23]): 11
- IC50 (Pancreatic PANC-1; PANC-1, 72 h, 3 Days of treatment, 18 2-fold dilutions 5-0.00003 μM, read-out: Average IC50): 11.5 nM
- IC50 (Pancreatic PANC-1; [15]): 31.4 nM
- Fold IC50 (Pancreatic PANC-1; [23]): 9.3
- IC50 (Tongue UPCI: SCC090; [24]): 26 nM
- IC50 (Tongue UPCI: SCC090; [16]): 0.5 nM
- Fold IC50 (Tongue UPCI: SCC090; [23]): 3.5
- IC50 (Tongue SCC-4; SCC-4, 72 h, 3 Days of treatment, 18 2-fold dilutions 5-0.00003 μM, read-out: Average IC50): 23.9 nM
- IC50 (Tongue SCC-4; [17]): 23.2 nM
- Fold IC50 (Tongue SCC-4; [23]): 4.2
- IC50 (Bladder SCABER; SCaBER, 72 h, 3 Days of treatment, 18 2-fold dilutions 5-0.00003 μM, read-out: Average IC50): 10.1 nM
- IC50 (Bladder SCABER; [18]): 27.3 nM
- Fold IC50 (Bladder SCABER; [23]): 3.3
- IC50 (Osteosarcomas SAOS-2; SAOS-2, 72 h, 3 Days of treatment, 18 2-fold dilutions 5-0.00003 μM, read-out: Average IC50): 15.4 nM
- IC50 (Osteosarcomas SAOS-2; [19]): 79.1 nM
- Fold IC50 (Osteosarcomas SAOS-2; [23]): 7.2
- IC50 (Bladder HT-1197; HT1197, 72 h, 3 Days of treatment, 18 2-fold dilutions 5-0.00003 μM, read-out: Average IC50): 11.5 nM
- IC50 (Bladder HT-1197; [20]): 48.5 nM
- Fold IC50 (Bladder HT-1197; [23]): 22
- IC50 (Liver HepG2; HepG2, 72 h, 3 Days of treatment, 18 2-fold dilutions 5-0.00003 μM, read-out: Average IC50): 20.2 nM
- IC50 (Liver HepG2; [21]): 296 nM
- Fold IC50 (Liver HepG2; [23]): 11
- IC50 (Pharynx FADU; FaDu, 72 h, 3 Days of treatment, 18 2-fold dilutions 5-0.00003 μM, read-out: Average IC50): 37.1 nM
- IC50 (Pharynx FADU; [22]): 54.1 nM
- Fold IC50 (Pharynx FADU; [23]): 2.0
